From patent US20250320245A1, “Nucleoside Analogues for the Treatment of Parasitic Infections” (Universiteit Antwerpen, priority 2021, published 2025)
Like-named read-outs stand apart in the source and are kept apart here.

Tests used:
[1] = tested on: T. evansi type A (RoTat 1.2); test: In vitro drug susceptibility assay, T. evansi type A; type: cell-based; settings: Table 2; two independent repeat experiments; read-out: IC50 T. evansi (type A)
Protocol: (§1) Drug susceptibility assays with T. brucei (Squib 427), T. evansi type A (RoTat 1.2) and T. equiperdum (BoTat 1.1) were performed under similar conditions. Parasites were cultured in HMI-9 culture medium supplemented with 10% iFBS. To determine in vitro susceptibility of the abovementioned Trypanosoma species, 10 concentrations of a 4-fold dilution series (with a highest in-test concentration of 64 μM) was prepared for each compound, and parasites were seeded at 1.5×10^4 parasite/well. After 72 h of drug exposure at 37° C. with 5% CO2, resazurin was added to the wells (final concentration of 10 μg mL^−1), followed by another incubation for 24 h. Cell viability was determined by fluorescence reading (Tecan®, GENios) and 50% inhibitory concentration (IC50) was calculated for each compound.

[2] = tested on: T. vivax (ILRAD700); test: Ex vivo drug susceptibility assay, T. vivax; type: cell-based; settings: Trypanosoma vivax
From the text: (§2) T. congolense (IL3000), the isometamidium (ISM)-resistant T. congolense strain (MSORO M7H), T. evansi type A (RoTat 1.2), T. evansi type B (KETRI 2479) and T. equiperdum (BoTat 1.1) used for in vitro, ex vivo and in vivo experiments were kindly provided by the Institute of Tropical Medicine (ITM), and T. vivax (ILRAD700) and T. congolense (TC13) used for ex vivo and in vivo experiments, were kindly provided by the University of Brussel (VUB).
(§3) Ex Vivo Drug Susceptibility Assays for T. vivax, T. congolense ISM-Resistant, and T. evansi Type B
(§4) For Trypanosoma species/strains that were not adapted to culture conditions, donor mice were infected intraperitoneally with 10^4 parasites. Around day 5-6 post infection, blood was collected via cardiac puncture and parasites were isolated using mini-anion exchange centrifugation technique (mAECT). 4-fold dilutions of the test compounds were prepared with the highest concentration of 64 μM, and parasites were seeded at 1×10^5 parasite/well. Following 24 h of drug exposure at 37° C. and 5% CO2, resazurin was added to the wells and plates were incubated (37° C./5% CO2) for another 24 h. Cell viability was determined by fluorescence reading (Tecan®, GENios), and IC50 values were calculated by non-linear regression (dose-response curve with variable slope) using Prism 8.0 (GraphPad Software Inc., San Diego, CA, USA).

[3] = tested on: T. congolense (IL3000); test: In vitro drug susceptibility assay, T. congolense; type: cell-based; settings: Trypanosoma congolense; Table 2; two independent repeat experiments
Protocol: Drug susceptibility assays for T. congolense (IL3000) were performed with parasites cultured in HMI-9 medium supplemented with 15% horse serum. Parasites were seeded at a concentration of 1.5×10^4 parasite/well and exposed to a 4-fold compound dilution series starting at a highest in-test concentration of 64 μM. Plates were incubated for 72 h at 34° C. and 5% CO2, followed by the addition of resazurin (Sigma, Aldrich) and a further incubation period of 24 h. Cell viability was quantified by fluorescence reading (Tecan®, GENios), and IC50 values were calculated by non-linear regression (dose-response curve with variable slope) using Prism 8.0 (GraphPad Software Inc., San Diego, CA, USA).

[4] = tested on: isometamidium (ISM)-resistant T. congolense strain (MSORO M7H); test: Ex vivo drug susceptibility assay, T. congolense ISM-resistant; type: cell-based; settings: Trypanosoma congolense; Table 2; two independent repeat experiments; read-out: IC50 T. congolense ISM-R
From the text: as §2, §3, §4

[5] = tested on: T. evansi type B (KETRI 2479); test: Ex vivo drug susceptibility assay, T. evansi type B; type: cell-based; settings: Table 2; two independent repeat experiments
From the text: as §2, §3, §4

[6] = In vitro metabolic stability, mouse liver S9; type: in vitro ADME; settings: for metabolic stability in mouse liver microsomes: mouse liver S9, phase-I, without 1-ABT; for effect of 1-aminobenzotriazole (1-ABT) on phase-I metabolic decay: mouse microsome pre-incubated with 1-ABT
Protocol: The metabolic stability of selected compounds was determined in the presence of mice, horse, and bovine liver microsome fractions (S9) through phase-I (CYP450 and NADPH dependent enzymes) and Phase-II (UGT enzymes) metabolisms. Samples were collected after 0, 15, 30, and 60 minutes of incubation and the corresponding loss of parent compound was determined via liquid chromatography (UPLC) (Waters Aquity™) coupled with tandem quadrupole mass spectrometry (MS^2) (Waters Xevo™), equipped with an electrospray ionization (ESI) interface and operated in multiple reaction monitoring (MRM) mode.

[7] = tested on: T. brucei (Squib 427); test: In vitro drug susceptibility assay, T. brucei; type: cell-based; settings: Trypanosoma brucei
Protocol: as §1

[8] = Cytotoxicity assay on MRC-5 fibroblasts; type: cell-based; settings: human; for CC50 at 3 day: MRC-5SV2 embryonic lung fibroblasts, Table 1, mean and SEM of two independent experiments, highest concentration 64 μM, read-out: MRC-5 off-target cytotoxicity (CC50); for IC50 at 3 day: MRC-5SV2 human embryonic lung fibroblasts, Table 2, two independent repeat experiments
Protocol: MRC-5SV2 (Sigma-Aldrich/ECACC, catalogue number 84100401) human embryonic lung fibroblasts were used to perform cytotoxicity assays. The cells were cultured in minimum essential medium (MEM, Life Technologies) with Earle's salt medium, supplemented with L-glutamine, NaHCO3 and 5% inactivated fetal bovine serum (iFBS). Cells were seeded at 1.5×10^4 cells/well and 4-fold compound dilutions were immediately added with a highest in-test concentration of 64 μM. After a 3-day incubation, resazurin (Sigma-Aldrich) was added to each well (final concentration of 10 μg mL^−1), and cell viability was assessed by fluorescent reading (Tecan®, GENios) following 4 h of incubation with resazurin (37° C./5% CO2). The results were expressed as percentage reduction in cell growth/viability compared to control wells and the 50% cytotoxic concentration (CC50) was calculated for each of the compounds.

[9] = tested on: T. equiperdum (BoTat 1.1); test: In vitro drug susceptibility assay, T. equiperdum; type: cell-based; settings: Trypanosoma equiperdum; Table 2; two independent repeat experiments
Protocol: as §1

[10] = tested on: T. B. brucei AnTAR1.1 PPYRE9; test: Bioluminescent T. brucei late curative mouse model; type: in vivo, female Swiss mice; settings: single-dose i.p. 50 mg kg−1
Protocol: Female Swiss mice (BW˜20-24 g; Janvier Labs, France) were randomly allocated to group of 3 animals and were intraperitoneally infected with 2×10^3 T. B. brucei AnTAR1.1 PPYRE9 derived from a heavily infected donor mouse. FH15967 was formulated in 10% (v/v) polyethylene glycol 400 (PEG400) in water at 2 mg mL^−1 and was administrated to separate groups as single dose s.i.d. i.p. at 50 mg kg-1 (n=3), and b.i.d i.p. at 50 mg kg^−1 (n=3). The reference drug diminazene aceturate was formulated in PBS at 2.5 mg mL^−1 and administrated s.i.d i.p. as a single dose at 10 mg kg^−1. Treatment was initiated at 3 dpi when parasitemia reached 10^6 parasites mL^−1, and parasitemia was microscopically determined via Neubaur improved haemocytometer on a daily basis until 7 dpi. Bioluminescent images were obtained at 3, 5 and 7 dpi to determine parasite burdens in the body. Accordingly, D-luciferin was injected i.p. at 15 mg kg^−1, animals were anaesthetised using isoflurane, and luminescent signals were acquired from both the dorsal and ventral sides of the animals. […] BLI images that obtained from IVIS Spectrum In vivo Imaging System (Perkin Elmer) were quantified with Living Image V4.3.1 SoftWoRx Suite 2.0 for microscopy, then processing using the Fiji software.

[11] = Table 1, mean and SEM of two independent experiments, read-out: T. vivax in vitro activity (IC50)
[12] = Table 2, two independent repeat experiments, read-out: IC50 T. vivax
[13] = Table 1, mean and SEM of two independent experiments, read-out: T. brucei in vitro activity (IC50)
[14] = Table 2, two independent repeat experiments, read-out: IC50 T. brucei

## CSc1ncnc2c1ccn2[C@@H]1O[C@H](CO)[C@@H](O)[C@H]1O [FH15961/CL5565]
[1]
  IC50: 760 ± 30 nM
[2]; [11]
  IC50: 5 ± 10 nM
[2]; [12]
  IC50: 4 ± 2 nM
[3]
  IC50: 43 ± 8 nM
[4]
  IC50: 430 ± 20 nM
[5]
  IC50: 16 ± 3 nM
[6]
  metabolic stability in mouse liver microsomes: phase-I metabolic degradation
  effect of 1-aminobenzotriazole (1-ABT) on phase-I metabolic decay: adequately block phase-I metabolic decay
[7]; [13]
  IC50: 440 ± 1 nM
[7]; [14]
  IC50: 490 ± 100 nM
[8]
  CC50 at 3 day: > 64000 nM
  IC50 at 3 day: > 64000 nM
[9]
  IC50: 40 ± 0.2 nM

## C=CCSc1ncnc2c1ccn2[C@@H]1O[C@H](CO)[C@@H](O)[C@H]1O [FH15963, 4-S-allyl-N7-(β-D-ribofuranosyl)pyrrolo[2,3-d]pyrimidine]
[1]
  IC50: 100 ± 5 nM
[2]; [11]
  IC50: 34 ± 4 nM
[2]; [12]
  IC50: 34 ± 4 nM
[3]
  IC50: 180 ± 8 nM
[4]
  IC50: 140 ± 50 nM
[5]
  IC50: 14 ± 4 nM
[6]
  metabolic stability in mouse liver microsomes: phase-I metabolic degradation
  effect of 1-aminobenzotriazole (1-ABT) on phase-I metabolic decay: adequately block phase-I metabolic decay
[7]; [13]
  IC50: 34 ± 1 nM
[7]; [14]
  IC50: 34 ± 1 nM
[8]
  CC50 at 3 day: > 64000 nM
  IC50 at 3 day: > 64000 nM
[9]
  IC50: 25 ± 4 nM

## OC[C@H]1O[C@@H](n2ccc3c(Sc4ccccc4)ncnc32)[C@H](O)[C@@H]1O [FH15967, 4-S-phenyl-N7-(β-D-ribofuranosyl)pyrrolo[2,3-d]pyrimidine]
[1]
  IC50: 33 ± 6 nM
[2]; [11]
  IC50: 44 ± 5 nM
[2]; [12]
  IC50: 44 ± 5 nM
[3]
  IC50: 100 ± 20 nM
[4]
  IC50: 180 ± 9 nM
[5]
  IC50: 18 ± 6 nM
[6]
  metabolic stability in mouse liver microsomes: phase-I metabolic degradation
  effect of 1-aminobenzotriazole (1-ABT) on phase-I metabolic decay: adequately block phase-I metabolic decay
[7]; [13]
  IC50: 31 ± 8 nM
[7]; [14]
  IC50: 31 ± 8 nM
[8]
  CC50 at 3 day: > 64000 nM
  IC50 at 3 day: > 64000 nM
[10]; even faster than the diminazene aceturate reference group
  parasitemia decline by bioluminescent imaging and signal quantification: rapid parasitemia decline
[10]; until day 7 post infection
  blood parasitemia: negative blood parasitemia
[9]
  IC50: 26 ± 5 nM
